Source: ChEMBL document CHEMBL1909046, “DrugMatrix in vitro pharmacology data”

How the values were obtained:
[1] = DRUGMATRIX: Serotonin (5-Hydroxytryptamine) 5-HT3 radioligand binding (ligand: [3H] GR-65630); format: cell membranes, Membrane; conditions: hek293; Not Active = under 50% inhibition at 10 µM
[2] = biological target: T1, Type-2 angiotensin II receptor (Homo sapiens, UniProt P50052); format: cell-based; conditions: cho-k1; also: in other assays of this panel Not Active means under 50% inhibition at 10 µM
T1 sequence (P50052 whole entry): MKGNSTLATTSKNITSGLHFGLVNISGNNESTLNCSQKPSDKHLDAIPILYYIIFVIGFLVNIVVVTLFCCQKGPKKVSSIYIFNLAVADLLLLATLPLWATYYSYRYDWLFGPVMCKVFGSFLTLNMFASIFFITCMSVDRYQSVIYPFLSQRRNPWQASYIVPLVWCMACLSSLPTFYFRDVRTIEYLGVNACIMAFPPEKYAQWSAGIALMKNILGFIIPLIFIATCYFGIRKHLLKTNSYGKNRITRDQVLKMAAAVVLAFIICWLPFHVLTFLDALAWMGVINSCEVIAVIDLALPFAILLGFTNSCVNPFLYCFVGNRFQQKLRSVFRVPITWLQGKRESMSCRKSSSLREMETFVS

D(1A) dopamine receptor = D(1A) dopamine receptor (Homo sapiens, UniProt P21728); assay: DRUGMATRIX: Dopamine D1 radioligand binding (ligand: [3H] SCH-23390); format: cell membranes, CHO, Membrane; conditions: cho; Not Active = under 50% inhibition at 10 µM
Calcitonin receptor = biological target: T2, Calcitonin receptor (Homo sapiens, UniProt P30988); format: cell membranes, Membrane; conditions: t47d; also: in other assays of this panel Not Active means under 50% inhibition at 10 µM
T2 sequence (P30988 whole entry): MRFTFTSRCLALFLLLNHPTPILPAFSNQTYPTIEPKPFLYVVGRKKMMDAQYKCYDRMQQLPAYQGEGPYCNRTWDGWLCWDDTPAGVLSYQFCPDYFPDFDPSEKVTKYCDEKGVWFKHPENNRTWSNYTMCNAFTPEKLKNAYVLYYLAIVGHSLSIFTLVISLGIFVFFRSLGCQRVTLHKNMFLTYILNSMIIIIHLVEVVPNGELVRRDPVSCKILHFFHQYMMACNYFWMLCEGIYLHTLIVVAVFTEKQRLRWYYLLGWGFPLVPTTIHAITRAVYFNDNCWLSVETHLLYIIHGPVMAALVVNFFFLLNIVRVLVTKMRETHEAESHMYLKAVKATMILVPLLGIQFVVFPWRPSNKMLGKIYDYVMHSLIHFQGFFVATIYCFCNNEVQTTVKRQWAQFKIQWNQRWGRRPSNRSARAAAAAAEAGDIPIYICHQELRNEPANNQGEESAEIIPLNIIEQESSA

Glucocorticoid receptor = biological target: T3, Glucocorticoid receptor (Homo sapiens, UniProt P04150); conditions: hela s3; also: in other assays of this panel Not Active means under 50% inhibition at 10 µM
T3 sequence (P04150 whole entry): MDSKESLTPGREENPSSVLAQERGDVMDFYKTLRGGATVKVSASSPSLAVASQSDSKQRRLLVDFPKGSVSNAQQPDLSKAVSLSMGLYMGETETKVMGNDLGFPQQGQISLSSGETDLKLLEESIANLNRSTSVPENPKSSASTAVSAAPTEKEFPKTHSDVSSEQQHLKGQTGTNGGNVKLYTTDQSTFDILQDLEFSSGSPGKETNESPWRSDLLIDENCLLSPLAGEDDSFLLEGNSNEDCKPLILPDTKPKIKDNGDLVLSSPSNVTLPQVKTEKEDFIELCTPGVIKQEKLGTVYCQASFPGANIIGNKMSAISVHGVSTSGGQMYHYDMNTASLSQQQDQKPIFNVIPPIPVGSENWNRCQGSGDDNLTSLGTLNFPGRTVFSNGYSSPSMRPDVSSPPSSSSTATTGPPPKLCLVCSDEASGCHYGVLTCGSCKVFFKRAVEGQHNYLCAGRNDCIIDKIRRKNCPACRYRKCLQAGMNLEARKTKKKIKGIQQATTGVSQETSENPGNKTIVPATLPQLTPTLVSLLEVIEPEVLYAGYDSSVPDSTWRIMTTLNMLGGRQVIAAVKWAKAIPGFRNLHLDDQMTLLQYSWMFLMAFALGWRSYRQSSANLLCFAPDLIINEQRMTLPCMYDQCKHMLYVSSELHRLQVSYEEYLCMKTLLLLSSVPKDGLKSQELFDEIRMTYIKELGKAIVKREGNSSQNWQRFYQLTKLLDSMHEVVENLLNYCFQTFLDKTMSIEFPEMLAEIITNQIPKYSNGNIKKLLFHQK

[3] = DRUGMATRIX: Glutamate, Kainate radioligand binding (ligand: [3H] Kainic acid); format: cell membranes, Rattus norvegicus, Wistar, Brain, Membrane; conditions: Not Active = under 50% inhibition at 10 µM
[4] = biological target: C-C chemokine receptor type 2 (Homo sapiens, UniProt P41597); format: cell membranes, CHO-K1, Membrane; conditions: cho-k1; also: in other assays of this panel Not Active means under 50% inhibition at 10 µM
Neutrophil elastase = biological target: T4, Neutrophil elastase (Homo sapiens, UniProt P08246); format: tissue-based
T4 sequence (P08246 whole entry): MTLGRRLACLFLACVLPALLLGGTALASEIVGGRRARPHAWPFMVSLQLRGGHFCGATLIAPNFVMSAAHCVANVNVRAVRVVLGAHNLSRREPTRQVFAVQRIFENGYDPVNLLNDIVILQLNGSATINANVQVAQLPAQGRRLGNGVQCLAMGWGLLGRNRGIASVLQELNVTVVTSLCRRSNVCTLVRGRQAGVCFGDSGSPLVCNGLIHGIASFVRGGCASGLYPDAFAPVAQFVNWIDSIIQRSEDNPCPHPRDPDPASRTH

Sequence of D(1A) dopamine receptor (P21728 whole entry): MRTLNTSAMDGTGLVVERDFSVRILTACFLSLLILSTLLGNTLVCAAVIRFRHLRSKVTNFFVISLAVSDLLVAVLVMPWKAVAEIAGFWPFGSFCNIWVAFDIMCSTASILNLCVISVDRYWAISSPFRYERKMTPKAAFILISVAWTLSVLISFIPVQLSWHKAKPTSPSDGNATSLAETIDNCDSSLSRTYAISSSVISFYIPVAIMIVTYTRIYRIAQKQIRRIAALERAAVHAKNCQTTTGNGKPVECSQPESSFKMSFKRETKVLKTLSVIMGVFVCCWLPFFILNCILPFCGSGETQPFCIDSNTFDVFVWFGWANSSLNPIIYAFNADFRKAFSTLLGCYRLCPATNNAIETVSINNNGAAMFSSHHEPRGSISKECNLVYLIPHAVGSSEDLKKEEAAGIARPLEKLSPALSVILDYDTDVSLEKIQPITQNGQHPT
Sequence of C-C chemokine receptor type 2 (P41597 whole entry): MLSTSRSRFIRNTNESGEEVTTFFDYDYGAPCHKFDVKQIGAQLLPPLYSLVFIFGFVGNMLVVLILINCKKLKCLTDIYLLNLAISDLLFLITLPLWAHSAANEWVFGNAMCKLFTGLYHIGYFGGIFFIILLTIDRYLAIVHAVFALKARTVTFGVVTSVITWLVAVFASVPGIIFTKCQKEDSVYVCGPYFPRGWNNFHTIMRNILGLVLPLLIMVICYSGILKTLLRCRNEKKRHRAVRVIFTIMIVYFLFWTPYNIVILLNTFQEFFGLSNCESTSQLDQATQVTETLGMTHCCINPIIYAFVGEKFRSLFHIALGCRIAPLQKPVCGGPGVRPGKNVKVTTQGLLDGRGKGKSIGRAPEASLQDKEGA

CADMIUM ACETATE
Not Active: IC50 [1] | Ki [1] | IC50 [2] | Ki [2] | IC50 (D(1A) dopamine receptor) | Ki (D(1A) dopamine receptor) | IC50 (Calcitonin receptor) | Ki (Calcitonin receptor) | IC50 (Glucocorticoid receptor) | Ki (Glucocorticoid receptor) | IC50 [3] | Ki [3] | IC50 [4] | Ki [4] | IC50 (Neutrophil elastase) | Ki (Neutrophil elastase)

LEAD (II) ACETATE
Not Active: IC50 [1] | Ki [1] | IC50 [2] | Ki [2] | IC50 (D(1A) dopamine receptor) | Ki (D(1A) dopamine receptor) | IC50 (Calcitonin receptor) | Ki (Calcitonin receptor) | IC50 (Glucocorticoid receptor) | Ki (Glucocorticoid receptor) | IC50 [3] | Ki [3] | IC50 [4] | Ki [4] | IC50 (Neutrophil elastase) | Ki (Neutrophil elastase)

LIPOPOLYSACCHARIDE E. COLI O55:B5
Not Active: IC50 [1] | Ki [1] | IC50 [2] | Ki [2] | IC50 (D(1A) dopamine receptor) | Ki (D(1A) dopamine receptor) | IC50 (Calcitonin receptor) | Ki (Calcitonin receptor) | IC50 (Glucocorticoid receptor) | Ki (Glucocorticoid receptor) | IC50 [3] | Ki [3] | IC50 [4] | Ki [4] | IC50 (Neutrophil elastase) | Ki (Neutrophil elastase)
